Test results reported in patent US10047073B2, “Histone deacetylase inhibitors and compositions and methods of use thereof” (CHDI Foundation, Inc., priority 2015, dated 2018).
Counter-ions that a name gives are not always drawn.

Columns and labels:
[1] = system: cellular Class IIa HDAC activity in Jurkat E6-1 cells; assay: Inhibition of cellular Class IIa HDAC activity, Cell (Lys-TFA) substrate; format: cell-based; details: Boc-Lys(TFA)-AMC
Excerpt: Example 17: Analysis of Inhibition of Cellular Class IIa HDAC Activity with Class IIa Histone Deacetylase (HDAC) Inhibitors: Cell (Lys-TFA) Substrate
The potency of Class IIa Histone Deacetylase (HDAC) inhibitors was quantified by measuring the cellular histone deacetylase enzymatic activity using the fluorogenic substrate, Boc-Lys(TFA)-AMC. After penetration in Jurkat E6-1 cells, the substrate was deacetylated to Boc-Lys-AMC. After cell lysis and cleavage by trypsin, the fluorophore AMC was released from the deacetylated substrate only. The fluorescence of the sample was directly related to the histone deacetylase activity in the sample.
Jurkat E6.1 cells were cultured according to standard cell culture protocols in Jurkat E6.1 Growth Media (RPMI without phenol red, 10% FBS, 10 mM HEPES, and 1 mM Sodium Pyruvate). Jurkat E6.1 cells were counted using a Coulter Counter and resuspended in Jurkat E6.1 growth media at a concentration of 75,000 cells/35 μL. 35 μL or 75,000 cells was seeded into Greiner microtitre assay plates. The plates were then incubated at 37° C. and 5% CO2 while other assay components were being prepared.
(§1) Serial dilutions of the HDAC inhibitors and control reference compound (1-(5-(3-((4-(1,3,4-oxadiazol-2-yl)phenoxy)methyl)-1,2,4-oxadiazol-5-yl)thiophen-2-yl)-2,2,2-trifluoroethanone) were made by first resuspending the lyophilized compound to a final concentration of 10 mM in 100% DMSO. Stocks of 70 aliquots of the 10 mM compound in DMSO were prepared and stored at −20° C. From one stock aliquot of each tested compound and the reference compound, a 16-point serial dilution was prepared according to Table 1 using a 125 μL 16-channel Matrix multi-channel pipette.
2 μL (200×) of each diluted solution and each control (full activity: 100% DMSO alone or full inhibition 1 mM) was stamped into V-bottom polypropylene 384-well compound plates using either the Bravo, Janus, or 12.5 μL 16-channel Matrix multi-channel pipette. Each well with the 200× compound solution was diluted 1:20 by the addition of 38 μL Jurkat assay buffer+DMSO (9.5% DMSO, RPMI without phenol red, 0.09% FBS, 9 mM Hepes, and 0.9 mM Sodium Pyruvate equilibrated to r.t.)
5× (500 μM) substrate was prepared just prior to the addition to the assay. The 5× substrate was prepared by diluting a 100 mM Boc-Lys(TFA)-AMC in DMSO solution 1:200 by adding it drop-wise to Jurkat assay medium (RPMI without phenol red, 0.1% FBS, 10 mM Hepes, and 1 mM Sodium Pyruvate equilibrated to 37° C.) while vortexing at slow speed to prevent precipitation.
10 mL of 3× lysis buffer was prepared with 8.8 mL of 3× stock lysis buffer (50 mM Tris-HCl, pH 8.0, 137 mM NaCl, 2.7 mM KCl, 1 mM MgCl2, 1% Nonidet P40 Substitute equilibrated to r.t.) and 1.2 mL of 3 mg/mL Trypsin equilibrated to r.t.
5 μL of each solution of 1:20 diluted compound from above was transferred to the Greiner microtitre assay plates with 75,000 cells/well using the Bravo. Cells were then incubated for 2 hours at 37° C. and 5% CO2. The assay was then started by adding 10 μL of 5× (500 μM) substrate to the assay plate using either the Bravo or 16-channel Matrix multi-channel pipette. The cells were then incubated for 3 hours at 37° C. and 5% CO2. Next, 25 μL of 3× lysis buffer was added to each well using either the 125 μL 16 channel pipette or the Bravo. The assay plate was then incubated overnight (15-16 hours) at 37° C. and 5% CO2. The following day, the plates were shaken on an orbital shaker for 1 minute at 900 rpm. Finally the top read fluorescence (Excitation: 355 nm, Emission: 460 nm) was measured using PerkinElmer EnVision.

[2] = system: cellular Class I HDAC activity in Jurkat E6-1 cells; assay: Inhibition of cellular Class I HDAC activity, Cell (Lys-Ac) substrate; format: cell-based; details: Boc-Lys(Ac)-AMC
Protocol: Example 18: Analysis of Inhibition of Cellular Class I HDAC Activity with Class IIa Histone Deacetylase (HDAC) Inhibitors: Cell (Lys-Ac) Substrate
The Class I HDAC activity of Class IIa Histone Deacetylase (HDAC) inhibitors was quantified by measuring the cellular histone deacetylase enzymatic activity using the fluorogenic substrate, Boc-Lys(Ac)-AMC. This was performed according to the procedure in Example 17, using Boc-Lys(Ac)-AMC substrate in place of Boc-Lys(TFA)-AMC.

[3] = biological target: human catalytic domain HDAC4 protein (Homo sapiens (Human), UniProt P56524); assay: Inhibition of HDAC4 catalytic domain, Boc-Lys(TFA)-AMC fluorogenic substrate; details: read-out: HDAC4 Biochemical IC50
Excerpt: Example 13: Analysis of Inhibition of HDAC4 with Class IIa Histone Deacetylase (HDAC) Inhibitors
The potency of Class IIa Histone Deacetylase (HDAC) inhibitors was quantified by measuring the Histone Deacetylase 4 (HDAC4) catalytic domain enzymatic activity using the fluorogenic substrate, Boc-Lys(TFA)-AMC. The substrate was deacetylated to Boc-Lys-AMC by HDAC4. […] The fluorescence of the sample was directly related to the histone deacetylase activity in the sample.
as §1, with “dimethyl sulfoxide (DMSO).” for “DMSO.”, “60 μL” for “70”, “pipette (Matrix Technologies Ltd).” for “pipette.”
2 μL (200×) of each diluted solution and each control (full activity: 100% DMSO alone or full inhibition 1 mM) was stamped into V-bottomed polypropylene 384-well compound plates using either the Bravo (384-well head from Agilent) or 12.5 μL 16-channel Matrix multi-channel pipette (Matrix Technologies Ltd). Each well with the 200× compound solution was diluted 1:20 by the addition of 38 μL assay buffer+DMSO (10.5% DMSO, 45 mM Tris-HCl, 123 mM NaCl, 2.4 mM KCl, and 0.9 mM MgCl2 at pH 8.0 and equilibrated to r.t.).
The HDAC4 catalytic domain enzyme was human catalytic domain HDAC4 protein (amino acids 648-1032) with a C-terminal 6× histidine tag, produced by BioFocus. A working solution of enzyme was prepared from a 500 μg/mL stock aliquot of HDAC4 catalytic domain (thawed on ice) diluted to 0.2 μg/mL with assay buffer (50 mM Tris-HCl, 137 mM NaCl, 2.7 mM KCl, and 1 mM MgCl2 at pH 8 and equilibrated to r.t.) just prior to the addition of the enzyme to the assay.
5× (50 μM) substrate was prepared just prior to the addition to the assay. A 1 mM substrate stock was made by diluting a 100 mM Boc-Lys(TFA)-AMC in DMSO solution 1:100 by adding it drop-wise to assay buffer (equilibrated to r.t.) while vortexing at slow speed to prevent precipitation. The 5× substrate was prepared by diluting the 1 mM substrate solution 1:20 by adding it drop-wise to assay buffer (equilibrated to r.t.) while vortexing at slow speed to prevent precipitation.
3× (30 μM) Developer/Stop Solution was prepared just prior to addition to the plate by diluting a stock solution of 10 mM reference compound 1:333 in 25 mg/mL trypsin (PAA Laboratories Ltd.) equilibrated to r.t.
5 μL of each solution of 1:20 diluted compound from above was transferred to a clear bottomed, black, 384-well assay plate using the Bravo or the Janus (384-well MDT head from Perkin Elmer). Using a 16-channel Matrix multi-channel pipette, 35 μL of the working solution of HDAC4 catalytic domain enzyme (0.2 μg/mL in assay buffer) was transferred to the assay plate. The assay was then started by adding 10 μL of 5× (50 μM) substrate to the assay plates using either the Bravo, Janus or 16-channel Matrix multi-channel pipette. The assay plate was then shaken for two minutes on an orbital shaker at 900 rpm (rotations per minute). Next the plate was incubated for 15 minutes at 37° C. The reaction was stopped by adding 25 μL of 3× (30 μM) developer/stop solution to the assay plates using either the Bravo, Janus or a 16-channel Matrix multi-channel pipette. Assay plates were then shaken for 5 minutes on an orbital shaker at 1200 rpm. Next, the assay plates were incubated at 37° C. for 1 hour in a tissue culture incubator. Finally, the fluorescence was measured (Excitation: 355 nm, Emission: 460 nm) using PerkinElmer EnVision in top read mode.

[4] = Homo sapiens, Jurkat E6.1, Jurkat E6.1 cells

human catalytic domain HDAC4 protein, sequence (P56524 648-1032): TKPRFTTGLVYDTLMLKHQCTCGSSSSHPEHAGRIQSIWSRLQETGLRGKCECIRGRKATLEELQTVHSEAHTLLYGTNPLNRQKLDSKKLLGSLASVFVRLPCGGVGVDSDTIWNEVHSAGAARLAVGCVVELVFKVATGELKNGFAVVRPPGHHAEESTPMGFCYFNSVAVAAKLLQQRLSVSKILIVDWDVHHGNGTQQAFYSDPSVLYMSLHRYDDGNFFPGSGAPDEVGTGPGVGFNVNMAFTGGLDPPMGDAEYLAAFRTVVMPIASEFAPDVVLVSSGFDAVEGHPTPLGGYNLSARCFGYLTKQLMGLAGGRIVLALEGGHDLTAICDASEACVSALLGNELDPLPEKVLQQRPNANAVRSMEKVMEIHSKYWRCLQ

| Structure (SMILES) | IC50 [1, 4] [µM] | IC50 [2, 4] [µM] | IC50 [3] [µM] | IC50 ([1]; Jurkat E6.1 cells) [µM] | IC50 ([2]; Jurkat E6.1 cells) [µM] |
| --- | --- | --- | --- | --- | --- |
| O=C(NC1(CN2CCCC23COC3)CC1)c1ccc(-c2noc(C(F)(F)F)n2)cc1 [Example 3, N-(1-(2-Oxa-5-azaspiro[3.4]octan-5-ylmethyl)cyclopropyl)-4-(5-(trifluoromethyl)-1,2,4-oxadiazol-3-yl)benzamide] | 0.39 | 8.6 | 0.75 |  |  |
| CC1(C)CCCN(CC2(NC(=O)c3ccc(-c4noc(C(F)(F)F)n4)c(F)c3)CC2)C1 [Example 12, N-(1-((3,3-Dimethylpiperidin-1-yl)methyl)cyclopropyl)-3-fluoro-4-(5-(trifluoromethyl)-1,2,4-oxadiazol-3-yl)benzamide] | 0.312 | 15.1 | 0.076 |  |  |
| O=C(NC1(CN2CCCC2C2CC2)CC1)c1ccc(-c2noc(C(F)(F)F)n2)cc1 (single isomer, unassigned) [Example 7, E2-(abs)-N-(1-((2-Cyclopropylpyrrolidin-1-yl)methyl)cyclopropyl)-4-(5-(trifluoromethyl)-1,2,4-oxadiazol-3-yl)benzamide] |  |  | 0.003 | 0.014 | 0.54 |
| O=C(NC1(CN2CCC3(CC2)COC3)CC1)c1ccc(-c2noc(C(F)(F)F)n2)cc1 [Example 2, N-(1-(2-Oxa-7-azaspiro[3.5]nonan-7-ylmethyl)cyclopropyl)-4-(5-(trifluoromethyl)-1,2,4-oxadiazol-3-yl)benzamide] | 0.24 | 4.9 | 0.11 |  |  |
| O=C(NC1(CN2CCC3(CC2)CC3)CC1)c1ccc(-c2noc(C(F)(F)F)n2)cc1 [Example 5, N-(1-(6-Azaspiro[2.5]octan-6-ylmethyl)cyclopropyl)-4-(5-(trifluoromethyl)-1,2,4-oxadiazol-3-yl)benzamide] | 0.37 | 2 | 0.089 |  |  |
| C[C@H]1CCCN1CC1CC1NC(=O)c1ccc(-c2noc(C(F)(F)F)n2)cc1 (single isomer, unassigned) [Example 11] | 1 | 36.6 | 0.23 |  |  |
| O=C(NC1(CN2CC3CCC(C3)C2)CC1)c1ccc(-c2noc(C(F)(F)F)n2)cc1 [Example 4, N-(1-(-3-Azabicyclo[3.2.1]octan-3-ylmethyl)cyclopropyl)-4-(5-(trifluoromethyl)-1,2,4-oxadiazol-3-yl)benzamide] | 0.69 | 7.8 |  |  |  |
| O=C(NC1(CN2CCCC23COC3)CCC1)c1ccc(-c2noc(C(F)(F)F)n2)cc1 [Example 10, N-(1-(2-Oxa-5-azaspiro[3.4]octan-5-ylmethyl)cyclobutyl)-4-(5-(trifluoromethyl)-1,2,4-oxadiazol-3-yl)benzamide] | 0.39 | 8.6 | 0.75 |  |  |
| O=C(NC1(CN2CCCC3(CC3)C2)CC1)c1ccc(-c2noc(C(F)(F)F)n2)cc1 [Example 1, N-(1-(5-Azaspiro[2.5]octan-5-ylmethyl)cyclopropyl)-4-(5-(trifluoromethyl)-1,2,4-oxadiazol-3-yl)benzamide] | 0.14 | 2.6 | 0.05 |  |  |
| CC1(C)CCCN(CC2(NC(=O)c3ccc(-c4noc(C(F)(F)F)n4)cc3)CC2)C1 [Example 8, N-(1-((3,3-Dimethylpiperidin-1-yl)methyl)cyclopropyl)-4-(5-(trifluoromethyl)-1,2,4-oxadiazol-3-yl)benzamide formate] | 0.045 | 2.5 | 0.03 |  |  |
| O=C(NC1(CN2CCCC2C2CC2)CC1)c1ccc(-c2noc(C(F)(F)F)n2)cc1 (single isomer, unassigned) [Example 6, E1-(abs)-N-(1-((2-Cyclopropylpyrrolidin-1-yl)methyl)cyclopropyl)-4-(5-(trifluoromethyl)-1,2,4-oxadiazol-3-yl)benzamide] | 0.028 |  | 0.008 |  | 1.5 |
| O=C(NC1(CN2CCC3(CC3)C2)CCC1)c1ccc(-c2noc(C(F)(F)F)n2)cc1 [Example 9, N-(1-(5-Azaspiro[2.4]heptan-5-ylmethyl)cyclobutyl)-4-(5-(trifluoromethyl)-1,2,4-oxadiazol-3-yl)benzamide] | 0.1 | 0.7 | 0.058 |  |  |
